Reference: ChEMBL document CHEMBL4616715, “Discovery of Diphenylacetamides as CXCR7 Inhibitors with Novel β-Arrestin Antagonist Activity” (ACS Med Chem Lett, 2020)
pEC50, pIC50, pKi: −log10 of the molar value.

Experiments:
[1] = molecular target: C-X-C chemokine receptor type 4 (Homo sapiens, UniProt P61073); assay: Displacement of [125I]-CXCL12 from human CXCR4 receptor expressed in Jurkat cells incubated for 2 hrs by radiolabeled ligand binding assay; assay type: cell-based
[2] = molecular target: T1, Atypical chemokine receptor 3 (Homo sapiens, UniProt P25106); assay: Displacement of [125I]-CXCL12 from human CXCR7 receptor expressed in CHOK1 cell membranes incubated for 2 hrs by radiolabeled ligand binding assay; parameters: species or system CHO-K1; details: for pKi: read-out: Ki
T1 sequence (P25106 whole entry): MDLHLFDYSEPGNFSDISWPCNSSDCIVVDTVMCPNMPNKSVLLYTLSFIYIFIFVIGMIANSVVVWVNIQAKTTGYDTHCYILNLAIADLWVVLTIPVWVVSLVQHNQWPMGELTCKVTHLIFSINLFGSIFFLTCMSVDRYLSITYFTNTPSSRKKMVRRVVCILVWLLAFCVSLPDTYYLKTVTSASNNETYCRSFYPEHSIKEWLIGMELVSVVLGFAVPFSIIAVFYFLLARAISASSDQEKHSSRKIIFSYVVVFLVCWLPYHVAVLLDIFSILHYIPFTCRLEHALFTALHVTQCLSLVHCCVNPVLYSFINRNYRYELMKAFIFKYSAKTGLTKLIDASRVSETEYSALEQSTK

[3] = molecular target: T1, Atypical chemokine receptor 3; assay: Agonist activity at human CXCR7 receptor expressed in CHOK1 cell membranes assessed as increase in beta-arrestin recruitment incubated for 30 mins; assay type: cell-based, CHO-K1

Chain of C-X-C chemokine receptor type 4 (P61073 whole entry): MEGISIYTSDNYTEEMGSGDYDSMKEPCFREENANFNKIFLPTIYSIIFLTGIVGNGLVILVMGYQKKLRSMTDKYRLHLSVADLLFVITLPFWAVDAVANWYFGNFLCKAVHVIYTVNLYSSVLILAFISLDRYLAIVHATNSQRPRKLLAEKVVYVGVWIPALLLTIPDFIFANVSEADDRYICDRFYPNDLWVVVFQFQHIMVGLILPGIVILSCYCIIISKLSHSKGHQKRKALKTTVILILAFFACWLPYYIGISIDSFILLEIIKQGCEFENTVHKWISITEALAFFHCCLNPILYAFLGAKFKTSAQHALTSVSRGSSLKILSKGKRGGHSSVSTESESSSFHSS

Row | pIC50 [1] | pKi [2] | pEC50 [3] | Ki ([2]; read-out: pKi (converted)) | SMILES
1 | < 4.82 | – | – | – | NC(=O)C(c1ccccc1)(c1ccccc1)[C@@H]1CCN(CCOc2ccc(-c3nccs3)cc2)C1
2 | – | 4.93 | < 5.00 | – | Cc1noc(-c2ccc(OCCN3CC[C@@H](C(C(N)=O)(c4ccccc4)c4ccccc4)C3)cc2)n1
3 | – | 5.39 | < 5.00 | 4.17 µM | NC(=O)C(c1ccccc1)(c1ccccc1)[C@@H]1CCN(CCOc2ccc(-c3nnco3)cc2)C1
4 | – | 5.18 | < 5.00 | – | NC(=O)C(c1ccccc1)(c1ccccc1)[C@@H]1CCN(CCOc2ccc(C3=NCCO3)cc2)C1
